Source: patent US7772180B2, “Hepatitis C virus inhibitors” (Bristol-Myers Squibb Company, priority 2006, dated 2010)
Read-outs that look alike come from different tables or passages of the source.

Experiments:
[1] = target: T1, HCV NS3/4A protease complex, BMS strain (UniProt P27958, species not given/STRAIN_BMS); assay: FRET peptide assay to monitor HCV NS3/4A proteolytic activity (BMS strain); format: biochemical, Hepatitis C virus (genotype 1a); details: read-out: IC50 against the NS3/4A BMS strain in the enzyme assay; BMS strain
T1 construct: other: BMS strain; said of H77 and J4L6S; fused on or other part: A three-lysine solubilising tail at the C-terminus of NS4A; A His tag is implied by the pET21b vector and Ni-NTA purification; Both are printed for the H77 and J4L6S constructs and apply to BMS by inference
Summary of the method: (§1)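 Purified recombinant NS3/4A complex from genotype 1a BMS strain, 2-3 nM final, with RET S1 EDANS/DABCYL depsipeptide substrate at 2 μM final in HEPES pH 7.5, NaCl, Triton, glycerol, βME. Cleavage followed in real time by fluorescence. For high-potency compounds: 50 μg/ml BSA added, protease lowered to 300 pM.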
T1 sequence (P27958 1027-1657, stated change not applied, one chain of several): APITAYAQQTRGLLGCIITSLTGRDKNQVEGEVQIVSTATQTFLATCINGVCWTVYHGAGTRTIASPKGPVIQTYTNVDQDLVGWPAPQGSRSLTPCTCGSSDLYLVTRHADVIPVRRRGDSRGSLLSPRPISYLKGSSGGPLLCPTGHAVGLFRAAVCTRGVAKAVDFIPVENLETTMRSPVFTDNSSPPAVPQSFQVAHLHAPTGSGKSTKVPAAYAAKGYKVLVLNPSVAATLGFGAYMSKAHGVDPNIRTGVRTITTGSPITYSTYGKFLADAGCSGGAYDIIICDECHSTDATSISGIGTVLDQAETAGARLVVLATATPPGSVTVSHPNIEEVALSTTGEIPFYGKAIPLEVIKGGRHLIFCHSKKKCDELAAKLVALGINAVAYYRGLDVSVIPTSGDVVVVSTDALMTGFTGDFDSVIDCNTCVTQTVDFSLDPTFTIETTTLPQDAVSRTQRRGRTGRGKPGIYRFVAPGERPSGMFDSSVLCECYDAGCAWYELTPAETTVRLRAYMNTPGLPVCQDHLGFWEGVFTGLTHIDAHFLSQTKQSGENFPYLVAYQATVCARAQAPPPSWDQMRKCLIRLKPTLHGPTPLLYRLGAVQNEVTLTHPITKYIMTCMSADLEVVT

[2] = target: T2, HCV NS3/4A protease complex, BMS strain (UniProt P27958, species not given/STRAIN_BMS); assay: as above; format: biochemical, Hepatitis C virus (genotype 1a); details: read-out: HCV Protease (IC50); NS3/4A BMS strain; activity range class
T2 construct: other: NS3/4A BMS strain; activity range class; numeric values, unit not given; said of H77 and J4L6S; fused on or other part: A three-lysine solubilising tail at the C-terminus of NS4A; A His tag is implied by the pET21b vector and Ni-NTA purification; Both are printed for the H77 and J4L6S constructs and apply to BMS by inference
Summary of the method: as §1
T2 sequence (P27958 1027-1657, stated change not applied, one chain of several): as above

[3] = target: T3, human pancreatic chymotrypsin (Homo sapiens, UniProt P17538); assay: Specificity assay, chymotrypsin; format: biochemical; details: read-out: Chymotrypsin activity in the specificity assays (IC50)
T3 construct: purchased Sigma, EMDbiosciences
Protocol: The specificities of compounds of the present disclosure were determined against a variety of serine proteases: human neutrophil elastase (HNE), porcine pancreatic elastase (PPE) and human pancreatic chymotrypsin and one cysteine protease: human liver cathepsin B. In all cases a 96-well plate format protocol using either colorimetric p-nitroaniline (pNA) substrate or fluorometric Amino-Methyl-Coumarin (AMC) specific for each enzyme was used as described previously (PCT Patent Application No. WO 00/09543) with some modifications to the serine protease assays. All enzymes were purchased from Sigma, EMDbiosciences while the substrates were from Bachem, Sigma and EMDbiosciences.
The pNA assay for Chymotrypsin included a 1 h enzyme-inhibitor pre-incubation at room temperature followed by addition of substrate and hydrolysis to ˜15% conversion as measured on a Spectramax Pro microplate reader. Compound concentrations varied from 100 to 0.4 μM depending on their potency. Cathepsin B, HNE, and PPE assays each was initiated by addition of substrate to enzyme-inhibitor pre-incubated for 10 min at room temperature and hydrolysis to 15% conversion as measured on cytofluor. […]
The percentage of inhibition was calculated using the formula: [1−((UVinh−UVblank)/(UVctl−UVblank))]×100 […]

T3 sequence (P17538 19-263): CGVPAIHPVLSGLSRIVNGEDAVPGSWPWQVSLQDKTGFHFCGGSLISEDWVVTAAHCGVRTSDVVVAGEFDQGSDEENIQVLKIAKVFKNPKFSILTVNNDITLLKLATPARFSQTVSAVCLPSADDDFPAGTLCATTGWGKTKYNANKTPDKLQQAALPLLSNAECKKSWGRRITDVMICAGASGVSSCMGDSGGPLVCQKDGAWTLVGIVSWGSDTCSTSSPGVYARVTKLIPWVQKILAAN

`C=C[C@@H]1C[C@]1(NC(=O)[C@@H]1C[C@@H](Oc2nc(N(C)C)cc3cc(OC)ccc23)CN1C(=O)C(Nc1cc(C)cc(C)n1)C(C)(C)C)C(=O)NS(=O)(=O)C1CC1` (single isomer, unassigned) [Compound 18] was tested, and the IC50 [1] was 3.4 nM, the IC50 [2] was 0.6 to 20 nM and the IC50 [3] was > 50000 nM.
